Calls of active or inactive are those of the source.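 Rule for the calls: active = minimum cell viability of 80% or lower across the dose range, counted as toxic; inactive = minimum cell viability above 80%.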
Experiments:
[1] = test system: MAGI-CCR5 cells viability, CellTiter-Glo ATP luminescence; experiment: viability loss in fusion assay cells – cell-based, MAGI and MAGI-HeLa co-culture, cytotoxicity control for HIV-1 fusion inhibitor project, dose response (AID 2286);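 note: cells exposed to compound for at least 64 h before ATP readout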;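 for minimum viability: 100% = median of DMSO vehicle wells with no ATP signal meaning 0%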;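 for viability: 100% = median of DMSO vehicle wells with no ATP signal meaning 0%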
[2] = as above; conditions: MAGI-CCR5 cells viability, CellTiter-Glo ATP luminescence; for minimum viability: measured here: MAGI minimum viability across doses
[3] = measured here: MAGI + HeLa-R5-16 co-culture viability
[4] = MAGI-HeLa co-culture viability, at 50 µM, stronger effect = lower value
[5] = at 12.5 µM, stronger effect = lower value
[6] = at 3.13 µM, stronger effect = lower value
[7] = at 1.56 µM, stronger effect = lower value

| Compound | CC50 [1] | CC50 [1, 3] | viability [2, 4] | minimum viability ([2]; at 50 µM, stronger effect = lower value) | also measured |
| --- | --- | --- | --- | --- | --- |
| Cc1ccc(C)c(S(=O)(=O)/N=C2\C=C(NS(=O)(=O)c3ccccc3)C(=O)c3ccccc32)c1 | 43.1 µM | > 50 µM | 52.8% | 40.6% |  |
| Cc1c2c(=O)n(-c3nc4ccccc4s3)nc-2cc(O)n1Cc1ccccc1 | 33.2 µM | > 50 µM | 49.2% | 42.5% |  |
| COc1cc([N+](=O)[O-])cc(/C=N/NC(=O)c2cc(-c3ccccc3)nc3ccccc23)c1O |  | > 50 µM | 56.7% |  | minimum viability ([2]; at 25 µM, stronger effect = lower value): 53.9% |
| CCc1oc2ccccc2c1C(=O)c1cc(Br)c(O)c(Br)c1 | 43.5 µM | > 50 µM | 52.7% | 38.8% |  |
| COc1cc(/C=C2\SC(=O)N(Cc3ccc(Cl)cc3)C2=O)cc([N+](=O)[O-])c1O | 20.8 µM | > 50 µM | 72.8% | 38.6% |  |
| COc1ccc(C(=O)/C=C/c2ccc(-c3ccccc3)cc2)cc1CSCC(=O)O | 13 µM | 23.2 µM | 5.69% | 3.11% |  |
| CN(C)S(=O)(=O)c1cccc(-c2nn(-c3ccccc3)cc2/C=C2\SC(=S)NC2=O)c1 | 10 µM | 25.5 µM | 35.7% | 27.8% |  |
| CCOc1cc(/C=C2\C(=O)N(c3cccc(C(=O)O)c3)N=C2C(F)(F)F)ccc1OCC(=O)Nc1ccccc1OC |  | 47.3 µM | 51.6% |  | viability ([2]; at 25 µM (top of the series)): 88.7% (inactive); minimum viability ([2]; at 6.25 µM, stronger effect = lower value): 85.3% |
| COc1cc(/C=C(\C#N)c2nc3ccccc3s2)cc([N+](=O)[O-])c1O | 38.1 µM |  | 101% | 43.3% |  |
| O=S(=O)(Nc1nc2ccccc2nc1Nc1cccc(S(=O)(=O)N2CCCCC2)c1)c1ccccc1 | 9.47 µM | 18.8 µM | 23.4% | 21.9% |  |
| O=C(O)CCCCCN1C(=O)/C(=C\c2cn(-c3ccccc3)nc2-c2cccs2)SC1=S | 44.3 µM | > 50 µM | 54.7% | 47.2% |  |
| O=C(NC(=S)Nc1ccccc1C(=O)O)c1ccc(-c2ccc(Br)cc2)o1 |  | > 50 µM | 59.6% | 77.9% |  |
| O=C(OCC1OC(n2ncc(=O)[nH]c2=O)C(OC(=O)c2ccccc2)C1OC(=O)c1ccccc1)c1ccccc1 (stereo not drawn) | 42.2 µM |  | 111% | 44% |  |
| O=C(O)CN1C(=O)/C(=C\c2ccccc2OCc2ccc(Cl)cc2Cl)SC1=S |  | > 50 µM | 67.5% | 84.5% | viability ([2]; at 50 µM (top of the series)): 84.5% (inactive) |
| CC(C)(C)c1ccc(OCC(=O)NNC(=S)NC(=O)c2ccccc2[N+](=O)[O-])c(Br)c1 |  | > 50 µM | 67.6% | 71% |  |
| COCCN1C(=O)/C(=C/c2ccc(OCc3ccc(C(=O)O)cc3)c(OC)c2)SC1=Nc1ccccc1 | 33.8 µM | 35.4 µM | 44.3% | 41.3% |  |
| COc1ccc(C(=O)/C=C/c2cccc(OCc3ccccc3)c2)cc1CSCC(=O)O | 28.5 µM | 46.4 µM | 13.8% | 5.22% |  |
| CCCCCC(=O)Cc1cc(O)cc2c1C(=O)Oc1cc(O)c(C(=O)O)c(CCCCC)c1O2 | 43.3 µM | 46.7 µM | 46.4% | 39.1% |  |
| Nc1c(S(=O)(=O)O)cc(NC(=O)c2ccccc2)c2c1C(=O)c1ccccc1C2=O |  | 49.2 µM | 50.2% |  | viability ([2]; at 50 µM (top of the series)): 103% (inactive); minimum viability ([2]; at 25 µM, stronger effect = lower value): 89.2% |
| O=C(Nc1ccccc1Cc1ccccc1)c1ccccc1NS(=O)(=O)c1ccc(Cl)s1 | 1.68 µM | 5.85 µM | 26.2% |  | minimum viability [2, 5]: 15.3% |
| Cc1ccc(-c2nc(SCC(=O)Nc3ccccc3OC(F)F)c3c(C)c(C(=O)O)sc3n2)cc1 | 36.4 µM | > 50 µM | 58% | 36.8% |  |
| O=C(O)C1Nc2c(O)cccc2C2C=CCC12 (stereo not drawn) | 18.6 µM | 22.4 µM | 21.6% | 23% |  |
| COc1ccc(S(=O)(=O)Nc2ccccc2C(=O)Nc2nc(-c3ccc(F)cc3)cs2)cc1OC | 6.51 µM | 14.8 µM | 27.5% | 18.4% |  |
| CCC(C)(C)C1CCc2c(sc(NC(=O)c3ccccc3C(=O)O)c2C#N)C1 (stereo not drawn) |  | > 50 µM | 50.7% | 55.5% |  |
| C=CC#CC[N+]1(CC#Cc2ccccc2)CCOCC1 |  | > 50 µM | 70% | 76.2% |  |

| Compound | CC50 [1] | CC50 [1, 3] | viability [2, 4] | minimum viability ([2]; at 50 µM, stronger effect = lower value) | also measured |
| --- | --- | --- | --- | --- | --- |
| O=C(O)COc1ccc(/C=C/C(=O)c2ccc(C3CCCCC3)cc2)cc1 | 49.7 µM | > 50 µM | 76.3% | 48.7% |  |
| COc1ccc(-c2nn(-c3ccccc3)cc2/C=C2/SC(=S)N(CCC(=O)O)C2=O)c(C)c1 | 48.6 µM | > 50 µM | 71.9% | 52% |  |
| COc1cccc(OCCOc2ccc(/C=C3\C(=N)N4N=C(S(C)(=O)=O)SC4=NC3=O)cc2OC)c1 |  | 35.8 µM | 38% |  | viability ([2]; at 50 µM (top of the series)): 97.2% (inactive); minimum viability [2, 6]: 91.2% |
| CSc1nc(SCC(=O)O)c2sc3nc(-c4ccccc4)c4c(c3c2n1)CCC4 |  | > 50 µM | 70.5% |  | viability ([2]; at 25 µM (top of the series)): 99.5% (inactive); minimum viability [2, 7]: 88.2% |
| COc1ccc(-c2csc(NC(=O)c3ccccc3NS(=O)(=O)c3ccc(C)cc3)n2)cc1 | 4.93 µM | 10.9 µM | 24.4% | 20% |  |
| COc1cc(/C=C2\C(=N)N3N=C(S(C)(=O)=O)SC3=NC2=O)ccc1OCCOc1ccccc1C |  | 10 µM | 15% | 51.5% |  |
| O=c1cc(-c2ccccc2Cl)oc2c(NS(=O)(=O)c3cc(Cl)cc(Cl)c3O)ccc(O)c12 | 5.61 µM | 15.6 µM | 20.8% | 16.3% |  |
| Brc1ccc(N/N=C(/N=Nc2nn[nH]n2)c2ccccc2)cc1 | 32.8 µM | 23.5 µM | 20.1% | 44.6% |  |
| CSc1nnc(-c2ccccc2N=Cc2c(C)[nH]n(-c3ccc4ccccc4c3)c2=O)c(=O)[nH]1 |  | > 50 µM | 55.5% | 53.7% |  |
| CCOc1cc(/C=C2/C(=N)N3C(=NC2=O)SN=C3S(C)(=O)=O)ccc1OS(=O)(=O)c1ccccc1 |  | > 50 µM | 68.9% | 81.5% | viability ([2]; at 50 µM (top of the series)): 81.5% (inactive) |
| O=[N+]([O-])c1cc(Cl)cc(/C=N/NC(=S)Nc2ccc(S(=O)(=O)N3CCOCC3)cc2)c1O |  | > 50 µM | 65.6% |  | viability ([2]; at 50 µM (top of the series)): 98.8% (inactive); minimum viability [2, 6]: 89.3% |
| O=C(O)CN1C(=O)/C(=C\c2cc(Br)ccc2OCc2ccc(Cl)cc2)SC1=S |  | 48.6 µM | 52.4% | 90.5% | viability ([2]; at 50 µM (top of the series)): 90.5% (inactive) |
| COc1cc(/C=C2/SC(=S)NC2=O)ccc1OS(=O)(=O)c1ccc(C)cc1 | 12 µM | 28.9 µM | 28.8% | 21.6% |  |
| O=C(NN1C(=O)/C(=C/c2ccc(O)c([N+](=O)[O-])c2)SC1=S)c1ccccc1Cl |  | > 50 µM | 76.4% | 67.5% |  |
| O=C1/C(=C\c2ccc(O)c(O)c2)C(c2ccccc2)=NN1c1ccccc1 | 38.4 µM | 48.7 µM | 34.7% | 28.1% |  |
| O=C(O)C1Nc2ccc(Br)cc2C2C=CCC12 (stereo not drawn) |  | > 50 µM | 74.1% |  | viability ([2]; at 50 µM (top of the series)): 98% (inactive); minimum viability ([2]; at 0.2 µM, stronger effect = lower value): 90.6% |
| O=C(O)c1ccc(N2C(=O)/C(=C/c3ccc(-c4ccc([N+](=O)[O-])cc4)o3)C=C2c2ccccc2)cc1 | 35.4 µM | > 50 µM | 65.7% |  | minimum viability ([2]; at 25 µM, stronger effect = lower value): 46.8% |
| O=C(O)c1ccc(N/N=C/c2ccc(-c3cccc(Cl)c3)o2)cc1 | 10.3 µM | 2.83 µM | 10.1% | 21.6% |  |
| CCOc1cc(/C=N/N=C2/NC(=O)C(CC(=O)O)S2)ccc1OCc1ccc(Cl)cc1 (stereo not drawn) |  | > 50 µM | 75.2% |  | viability ([2]; at 50 µM (top of the series)): 101% (inactive); minimum viability [2, 5]: 85.4% |
| CCOc1ccc(CCNC(=O)c2ccc3c(=O)[nH]c4c(C(=O)NC(C)C)sc(=S)n4c3c2)cc1 | 37.2 µM |  | 93.9% | 45.6% |  |
| COc1ccc2c(c1)cc(C(=O)N/N=C/c1c(O)c(C(=O)O)cc3ccccc13)n2C |  | > 50 µM | 75.1% |  | viability ([2]; at 50 µM (top of the series)): 95.6% (inactive); minimum viability [2, 7]: 89.5% |
| C/C(=N\Nc1ccc(C(=O)O)cc1)c1ccc2c(c1)Nc1ccccc1S2 | 46.2 µM | 26.2 µM | 52.7% | 47.2% |  |
| O=c1cc(-c2ccccc2)nc2c(-c3ccccc3)c(C(F)(F)F)[nH]n12 | 49.1 µM |  | 81.4% | 53.2% |  |
| CC(C)(C)c1ccc(S(=O)(=O)/N=C2\C=C(NS(=O)(=O)c3ccccc3)C(=O)c3ccccc32)cc1 |  | > 50 µM | 51.2% | 51.5% |  |

Source: PubChem BioAssay AID2286 (Southern Research Specialized Biocontainment Screening …, 2010)
